System: CD8+ T cells
Experiment: In vitro immunogenicity of HLA-A*24 peptides (CD8+ T-cell priming with aAPCs, multimer staining)
Assay type: cell-based, human
Method: In order to obtain information regarding the immunogenicity of the TUMAPs of the present invention, the inventors performed investigations using an in vitro T-cell priming assay based on repeated stimulations of CD8+ T cells with artificial antigen presenting cells (aAPCs) loaded with peptide/MHC complexes and anti-CD28 antibody.
Generation of pMHC/anti-CD28 coated beads, T-cell stimulations and readout was performed in a highly defined in vitro system using four different pMHC molecules per stimulation condition and 8 different pMHC molecules per readout condition.
The purified co-stimulatory mouse IgG2a anti human CD28 Ab 9.3 (Jung et al., 1987) was chemically biotinylated using Sulfo-N-hydroxysuccinimidobiotin as recommended by the manufacturer (Perbio, Bonn, Germany). Beads used were 5.6 μm diameter streptavidin coated polystyrene particles (Bangs Laboratories, Illinois, USA).
800.000 beads/200 μl were coated in 96-well plates in the presence of 4×12.5 ng different biotin-pMHC, washed and 600 ng biotin anti-CD28 were added subsequently in a volume of 200 μl. Stimulations were initiated in 96-well plates by co-incubating 1×10^6 CD8+ T cells with 2×10^5 washed coated beads in 200 μl TCM supplemented with 5 ng/ml IL-12 (PromoCell) for 3 days at 37° C. Half of the medium was then exchanged by fresh TCM supplemented with 80 U/ml IL-2 and incubating was continued for 4 days at 37° C. This stimulation cycle was performed for a total of three times. For the pMHC multimer readout using 8 different pMHC molecules per condition, a two-dimensional combinatorial coding approach was used as previously described (Andersen et al., 2012) with minor modifications encompassing coupling to 5 different fluorochromes. Finally, multimeric analyses were performed by staining the cells with Live/dead near IR dye (Invitrogen, Karlsruhe, Germany), CD8-FITC antibody clone SK1 (BD, Heidelberg, Germany) and fluorescent pMHC multimers. For analysis, a BD LSRII SORP cytometer equipped with appropriate lasers and filters was used. Peptide specific cells were calculated as percentage of total CD8+ cells. Evaluation of multimeric analysis was done using the FlowJo software (Tree Star, Oregon, USA). In vitro priming of specific multimer+CD8+ lymphocytes was detected by comparing to negative control stimulations.
Exemplary flow cytometry results after TUMAP-specific multimer staining for 3 peptides of the invention are shown in FIGS. 3A-3E together with corresponding negative controls.

Substance	in vitro immunogenicity: donors	in vitro immunogenicity: wells
FKBP10-002 (TYIGQGYII; listed as Homo sapiens)	++++ (>= 70% = ++++)	+ (<20% = +)
G2E-002 (LYINKANIW; listed as Homo sapiens)	++ (20%-49% = ++)	+ (<20% = +)
GLS-001 (DYIPQLAKF; listed as Homo sapiens)	++++ (>= 70% = ++++)	+ (<20% = +)
HSPBP-001 (RYLEAGAAGLRW; listed as Homo sapiens)	+ (<20% = +)	+ (<20% = +)
IQGAP1-001 (TYAALNSKATF; listed as Homo sapiens)	+ (<20% = +)	+ (<20% = +)
KDM6B-001 (RYGGSFAEL; listed as Homo sapiens)	++ (20%-49% = ++)	+ (<20% = +)
KFLEHTNFEF (listed as Homo sapiens) [SEQ ID No. 39]	++ (20%-49% = ++)	+ (<20% = +)
KLRD-001 (QYLFPSFETF; listed as Homo sapiens)	++++ (>= 70% = ++++)	+ (<20% = +)
KYLEKYYNL (listed as Homo sapiens) [SEQ ID No. 30]	++++ (>= 70% = ++++)	++ (20%-49% = ++)
LAPTM5-001 (SYMEVPTYLNF; listed as Homo sapiens)	++ (20%-49% = ++)	+ (<20% = +)
LYQILQGIVF (listed as Homo sapiens) [SEQ ID No. 161]	++++ (>= 70% = ++++)	+ (<20% = +)
MREG-001 (RYLFVVDRL; listed as Homo sapiens)	++++ (>= 70% = ++++)	++++ (>= 70% = ++++)
MUC16-001 (TYSEKTTLF; listed as Homo sapiens)	++ (20%-49% = ++)	+ (<20% = +)
NUP153-001 (VYFKPSLTPSGEF; listed as Homo sapiens)	+ (<20% = +)	+ (<20% = +)
OLFML2B-001 (YYGNTLVEF; listed as Homo sapiens)	++++ (>= 70% = ++++)	++ (20%-49% = ++)
OLFML2B-002 (YYYGNTLVEF; listed as Homo sapiens)	++ (20%-49% = ++)	+ (<20% = +)
PPTC-001 (HYFNTPFQL; listed as Homo sapiens)	++++ (>= 70% = ++++)	++ (20%-49% = ++)
PSMA4-001 (LYIGWDKHYGF; listed as Homo sapiens)	++++ (>= 70% = ++++)	+ (<20% = +)
PVRL1-001 (IYNPSMGVSVL; listed as Homo sapiens)	++ (20%-49% = ++)	+ (<20% = +)
RASA2-001 (YYVDKLFNTI; listed as Homo sapiens)	++ (20%-49% = ++)	+ (<20% = +)
RBPJ-001 (RYLHVEGGNF; listed as Homo sapiens)	++ (20%-49% = ++)	+ (<20% = +)
RFMDGHITF (listed as Homo sapiens) [SEQ ID No. 25]	++ (20%-49% = ++)	+ (<20% = +)

Substance	in vitro immunogenicity: donors	in vitro immunogenicity: wells
RYISPDQLADL (listed as Homo sapiens) [SEQ ID No. 47]	+++ (50%-69% = +++)	+ (<20% = +)
RYLDSLKAIVF (listed as Homo sapiens) [SEQ ID No. 28]	++++ (>= 70% = ++++)	+ (<20% = +)
RYLEKFYGL (listed as Homo sapiens) [SEQ ID No. 26]	++++ (>= 70% = ++++)	+ (<20% = +)
RYTLHINTL (listed as Homo sapiens) [SEQ ID No. 43]	++ (20%-49% = ++)	+ (<20% = +)
SAMD9L-001 (IYQRWKDLL; listed as Homo sapiens)	+++ (50%-69% = +++)	+ (<20% = +)
SLC-003 (RYFPTQALNF; listed as Homo sapiens)	+ (<20% = +)	+ (<20% = +)
SMPDL3B-001 (IYNQIAELW; listed as Homo sapiens)	++++ (>= 70% = ++++)	++ (20%-49% = ++)
SP14-001 (AYPDLNEIYRSF; listed as Homo sapiens)	+ (<20% = +)	+ (<20% = +)
TPS-001 (IYTRVTYYL; listed as Homo sapiens)	++++ (>= 70% = ++++)	++ (20%-49% = ++)
TRIM11-001 (IFLDYEAGHLSF; listed as Homo sapiens)	+ (<20% = +)	+ (<20% = +)
TRPM2-001 (VYHSYLTIF; listed as Homo sapiens)	++++ (>= 70% = ++++)	++ (20%-49% = ++)
TTC13-001 (RYLEYFEKI; listed as Homo sapiens)	++++ (>= 70% = ++++)	+++ (50%-69% = +++)
TUBGCP3-001 (FYQGIVQQF; listed as Homo sapiens)	++ (20%-49% = ++)	+ (<20% = +)
TYKYVDINTF (listed as Homo sapiens) [SEQ ID No. 159]	+++ (50%-69% = +++)	+ (<20% = +)
TYNPEIYVI (listed as Homo sapiens) [SEQ ID No. 35]	++++ (>= 70% = ++++)	++ (20%-49% = ++)
VFMKDGFFYF (listed as Homo sapiens) [SEQ ID No. 34]	++ (20%-49% = ++)	+ (<20% = +)
VYTSWQIPQKF (listed as Homo sapiens) [SEQ ID No. 23]	+ (<20% = +)	+ (<20% = +)
XPR-001 (VYPLALYGF; listed as Homo sapiens)	++++ (>= 70% = ++++)	++ (20%-49% = ++)
YYTKGFALLNF (listed as Homo sapiens) [SEQ ID No. 29]	+++ (50%-69% = +++)	+ (<20% = +)
ZBED5-001 (AYKDKDISFF; listed as Homo sapiens)	++++ (>= 70% = ++++)	+ (<20% = +)
ZNF697-001 (TYLTNHLRL; listed as Homo sapiens)	++++ (>= 70% = ++++)	++ (20%-49% = ++)

Source: patent publication US10526389B2, “Peptides and combinations of peptides for use in immunotherapy against lung cancer, including NSCLC and other cancers” (Immatics Biotechnologies GmbH, priority 2015, dated 2020)
